TGI data for 11 compounds are collected here from PubChem BioAssay (NCI).

Structures are written as SMILES. Values joined by “and” are separate entries in the source; they are usually repeats but may differ in a detail not shown here. Equal entries are not always repeated.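 1) Cells in 96-well plates. 2) Compound, 48 h, 5 concentrations. 3) Linear interpolation between surrounding doses. 4) Unreached endpoint = highest concentration. TGI denotes the concentration required for complete inhibition of growth.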

Among the test systems are 786-0 renal; ACHN renal; SF-295 CNS; SK-MEL-5 melanoma; SN12C renal; SNB-19 CNS; SNB-75 CNS; SR leukemia; T-47D breast; TK-10 renal; UACC-257 melanoma.
What all share (test): NCI anticancer screen, dose series, 48 h

On to `COC(=O)C1OC(O[C@H]2CC[C@]3(C)[C@H]4CC=C5[C@@H]6CC(C)(C)CC[C@]6(C(=O)OC6OCC(O)C(O)C6OC6OC(C)C(OC7OCC(O)C(O)C7O)C(O)C6O)[C@H](O)C[C@@]5(C)[C@]4(C)CC[C@H]3C2(C)C)C(O)C(O)C1O` (stereo partly specified), for which the TGI was 19 µM and 21.8 µM with 786-0 renal; 14.6 µM and 14.9 µM in the assay with ACHN renal; 13.7 µM and 14.9 µM in the assay on SF-295 CNS; 19.4 µM and 25.8 µM in the assay on SK-MEL-5 melanoma; 3.62 µM and 3.7 µM in the assay with SN12C renal; 17.5 µM and 21.9 µM in the assay with SNB-19 CNS. In addition, the TGI with SNB-75 CNS was 18.5 µM and 20.9 µM; in the assay with SR leukemia it was > 100 µM and 13.4 µM; with T-47D breast it was > 100 µM and 27.2 µM; in the assay with TK-10 renal it was 21.3 µM and 21.5 µM; in the assay on UACC-257 melanoma it was 8.87 µM and 18.6 µM.
For the compound `CC(=O)CC1(CBr)Nc2ccc([N+](=O)[O-])cc2NC1=O` (stereo unspecified), the TGI in the assay on 786-0 renal, with ACHN renal, in the assay on SF-295 CNS, in the assay on SK-MEL-5 melanoma, in the assay on SN12C renal and in the assay with SNB-19 CNS was more than 100 µM in each case. Also, the TGI in the assay on SNB-75 CNS, in the assay on SR leukemia, in the assay with T-47D breast, with TK-10 renal and in the assay on UACC-257 melanoma was more than 100 µM each time.
As for `CC(C)(C)C1CCC2c3c([nH]c4ccccc34)C3C(=O)N(c4ccc([N+](=O)[O-])cc4)C(=O)C3C2C1` (stereo unspecified), the TGI in the assay on 786-0 renal was 18.9 µM; with ACHN renal, more than 100 µM; in the assay on SF-295 CNS it was 93.8 µM; in the assay with SK-MEL-5 melanoma, 25.6 µM; with SN12C renal, 20.8 µM; in the assay with SNB-19 CNS it was 67.5 µM. Besides, the TGI in the assay with SNB-75 CNS is 38.4 µM; in the assay on SR leukemia, 19.7 µM; in the assay on T-47D breast, more than 100 µM; with TK-10 renal, 78.2 µM; in the assay with UACC-257 melanoma it was more than 100 µM.
For `N#CCCC(C=O)(CCC#N)CCC#N`, the TGI with 786-0 renal, in the assay with ACHN renal, in the assay with SF-295 CNS, in the assay with SK-MEL-5 melanoma, in the assay with SN12C renal and in the assay with SNB-19 CNS was more than 100 µM throughout. Moreover, the TGI in the assay with SNB-75 CNS, with SR leukemia, with T-47D breast, in the assay on TK-10 renal and in the assay on UACC-257 melanoma was more than 100 µM each time.
Turning to `O=c1c2cc(Br)cc(Br)c2[nH]c(=S)n1-c1ccc(N=Nc2ccc(O)c3cccnc23)cc1`, the TGI in the assay with 786-0 renal was more than 100 µM; in the assay on ACHN renal, more than 100 µM; in the assay on SF-295 CNS, more than 100 µM; with SK-MEL-5 melanoma it was 29 µM; in the assay on SN12C renal it was more than 100 µM; with SNB-19 CNS, 61.2 µM. The TGI in the assay on SNB-75 CNS, in the assay on SR leukemia, in the assay on T-47D breast, in the assay with TK-10 renal and in the assay on UACC-257 melanoma was more than 100 µM in each case.
In the case of `O=[N+]([O-])c1ccc(-n2nc3ccc4nonc4c3n2)cc1`, the TGI in the assay with 786-0 renal is 89.4 µM; in the assay on ACHN renal, more than 100 µM; in the assay on SF-295 CNS, 87.9 µM; with SK-MEL-5 melanoma, more than 100 µM; in the assay on SN12C renal, more than 100 µM; in the assay with SNB-19 CNS it was more than 100 µM. Further, the TGI was 30.8 µM with SNB-75 CNS; more than 100 µM in the assay with SR leukemia; more than 100 µM with T-47D breast; 39.9 µM with TK-10 renal; more than 100 µM with UACC-257 melanoma.
Take `COc1cc(CCNC2=CC(=O)c3nc[nH]c3C2=O)ccc1O`: the TGI was more than 100 µM in the assay on 786-0 renal; more than 100 µM with ACHN renal; 96.4 µM in the assay on SF-295 CNS; 27.6 µM in the assay with SK-MEL-5 melanoma; more than 100 µM in the assay on SN12C renal; 33.3 µM in the assay on SNB-19 CNS. Besides, the TGI with SNB-75 CNS was 40.4 µM; in the assay on SR leukemia, 98.4 µM; in the assay with T-47D breast, 73.2 µM; in the assay with TK-10 renal, 87.5 µM; in the assay with UACC-257 melanoma it was 34.8 µM.
Turning to `O=C1[C@@H]2[C@@H](CN3CN(c4ccccc4)N=C(c4ccccc4)[C@@]23c2ccccc2)C(=O)N1c1ccccc1`, the TGI in the assay on 786-0 renal worked out at 5.56 µM; with ACHN renal it was 3.69 µM; in the assay on SF-295 CNS it was 30.2 µM; with SK-MEL-5 melanoma it was 32.6 µM; in the assay on SN12C renal, 18.4 µM; in the assay with SNB-19 CNS it was 36.8 µM. For the same compound, the TGI is 34.9 µM in the assay with SNB-75 CNS; more than 100 µM with SR leukemia; 8.04 µM with T-47D breast; 3.13 µM with TK-10 renal; 29.1 µM in the assay on UACC-257 melanoma.
Take `Oc1ccc(C(O)C2CCCCN2)cc1O` (stereo unspecified): the TGI with 786-0 renal was 35.2 µM; with ACHN renal, more than 100 µM; with SF-295 CNS, more than 100 µM; in the assay on SK-MEL-5 melanoma, more than 100 µM; with SN12C renal, more than 100 µM; with SNB-19 CNS, more than 100 µM. Moreover, the TGI with SNB-75 CNS is more than 100 µM; with SR leukemia, more than 100 µM; with T-47D breast it was 54.3 µM; with TK-10 renal, more than 100 µM; with UACC-257 melanoma it was more than 100 µM.
Consider `N#Cc1c(NC(=S)Nc2ccc(Cl)cc2)sc2c1CCN(N1CCc3c(sc(NC(=S)Nc4ccc(Cl)cc4)c3C#N)C1)C2`, for which the TGI was 58.8 µM with 786-0 renal; more than 100 µM in the assay on ACHN renal; 50.4 µM with SF-295 CNS; 22.3 µM in the assay on SK-MEL-5 melanoma; more than 100 µM in the assay on SN12C renal; more than 100 µM with SNB-19 CNS. Besides, the TGI in the assay on SNB-75 CNS, with SR leukemia, with T-47D breast, in the assay with TK-10 renal and with UACC-257 melanoma was more than 100 µM each time.
Regarding `CN(CCCCCl)P(=O)(OCc1ccc([N+](=O)[O-])o1)OCC1OC(n2ccc(N)nc2=O)C(O)C1O` (stereo unspecified), the TGI with 786-0 renal was more than 100 µM; with ACHN renal, more than 100 µM; in the assay with SF-295 CNS, 57.7 µM; in the assay with SK-MEL-5 melanoma it was 1.15 µM; in the assay on SN12C renal, 33.7 µM; with SNB-19 CNS it was 43.7 µM. The TGI with SNB-75 CNS is 5.59 µM; with SR leukemia it was 43.9 µM; with T-47D breast, 7.71 µM; in the assay on TK-10 renal, more than 100 µM; in the assay on UACC-257 melanoma, 30.2 µM.
